Here are results for 15 compounds from patent publication US6110962A, “11-aryl-benzo[B]naphtho[2,3-D]furans and 11-aryl-benzo[B]naphtho[2,3-D]thiophenes useful in the treatment of insulin resistance and hyperglycemia” (American Home Products Corporation, priority 1999, dated 2000).

For experiment [1], the system named is diabetic (ob/ob) mice. As to the kind of experiment: Blood glucose lowering activity in diabetic (ob/ob) mice. The format is in vivo, mouse. The settings on record: ob/ob mice; for change in vivo at 25 mg/kg / change in vivo at 100 mg/kg / change in vivo at 10 mg/kg / change in vivo at 50 mg/kg / change in vivo at 75 mg/kg: Mus musculus, po; for change in vivo at 25 mg/kg / % Change Insulin from Vehicle / % Change Glucose from Vehicle: dose 25 mg/Kg; for % Change Glucose from Vehicle: 25 mg/kg. As for the experimental part:
The blood glucose lowering activity of representative compounds of this invention were determined in an in vivo standard procedure using diabetic (ob/ob) mice. The procedures used and results obtained are briefly described below. The non-insulin dependent diabetic (NIDDM) syndrome can be typically characterizes by obesity, hyperglycemia, abnormal insulin secretion, hyperinsulinemia and insulin resistance. […] In each test procedure, mice [Male or female ob/ob (C57 B1/6J) and their lean litermates (ob+ or +/+, Jackson Laboratories) ages 2 to 5 months (10 to 65 g)] of a similar age were randomized according to body weight into 4 groups of 10 mice. The mice were housed 5 per cage and are maintained on normal rodent chow with water ad libitum. Mice received test compound daily by gavage (suspended in 0.5 ml of 0.5% methyl cellulose); dissolved in the drinking water; or admixed in the diet. […] The dose is calculated based on the fed weekly body weight and is expressed as active moiety. […] Control mice received vehicle only. On the morning of Day 4, 7 or 14 two drops of blood (approximetly 50 ul) were collected into sodium fluoride containing tubes either from the tail vein or after decapitation. For those studies in which the compound was administered daily by gavage the blood samples were collected two hours after compound administration. The plasma was isolated by centrifugation and the concentration of glucose is measured enzymatically on an Abbott V. P. Analyzer. […] Analysis of variance followed by Dunett's Comparison Test (one-tailed) are used to estimate the significant difference between the plasma glucose values from the control group and the individual compound treated groups (CMS SAS Release 5.18).

For experiment [2], the system named is rat hepatic microsomal PTPases. The settings on record: PTPase activity, compound at 50 μM.
Experiment [3] addresses T1, Human recombinant PTP1B (Homo sapiens, UniProt P18031).
T1 construct: made in house
T1 sequence (P18031 1-435): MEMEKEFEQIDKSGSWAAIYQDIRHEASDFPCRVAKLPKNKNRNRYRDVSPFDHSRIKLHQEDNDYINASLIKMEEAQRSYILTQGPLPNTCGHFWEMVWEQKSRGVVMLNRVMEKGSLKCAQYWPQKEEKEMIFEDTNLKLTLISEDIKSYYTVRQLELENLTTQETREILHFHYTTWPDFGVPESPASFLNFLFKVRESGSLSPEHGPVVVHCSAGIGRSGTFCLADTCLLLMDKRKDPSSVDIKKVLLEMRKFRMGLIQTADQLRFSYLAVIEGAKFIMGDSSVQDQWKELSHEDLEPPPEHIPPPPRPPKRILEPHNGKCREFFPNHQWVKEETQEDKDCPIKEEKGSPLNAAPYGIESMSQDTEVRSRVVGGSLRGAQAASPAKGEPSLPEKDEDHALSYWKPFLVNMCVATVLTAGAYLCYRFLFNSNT
The format is biochemical. The following applies: read-out: IC50.

[4] abbreviates: 96 h, plasma glucose Day 4, 7 or 14, read-out: % Change Glucose from Vehicle.
Where [5] appears, read: read-out: % Change Insulin from Vehicle.

As usually defined, the pIC50 is the negative decadic logarithm of the IC50, by convention in mol/L.

pIC50: −log10 of the molar value. Structures can show the parent of a compound that is named as a salt. Where two headings read alike, the source gives them in different places.

For `COc1cc(-c2c3ccccc3c(Br)c3sc4ccccc4c23)cc(Br)c1O[C@H](Cc1ccccc1)C(=O)O` [Example 194, (R)-2-[2-Bromo-4-(6-bromo-benzo[b]naphtho[2,3-d]thiophen-11-yl)-6-methoxy-phenoxy]-3-phenyl-propionic acid], the change in vivo at 25 mg/kg in experiment [1] (setting [4]) was -32%. Moreover, the “% Change from Control” value in experiment [2] is -79.35%. For the same compound, in experiment [3], the pIC50 was 6.66.

Regarding `O=C(O)[C@@H](Cc1ccccc1)Oc1c(Br)cc(-c2c3ccccc3c(I)c3sc4ccccc4c23)cc1Br` [Example 136], the change in vivo at 25 mg/kg in experiment [1] (setting [4]) was -23.6%; in experiment [1] (setting [5]), -52%. Besides, the “% Change from Control” value in experiment [2] was -63.42%. Besides, the pIC50 in experiment [3] was 7.30.

Consider `O=C(O)[C@@H](Cc1ccccc1)Oc1c(F)ccc(-c2c3ccccc3c(Br)c3sc4ccccc4c23)c1F` [Example 203, (R)-2-[]3-(6-Bromo-benzo[b]naphtho[2,3-d]thiophen11-yl)-2.6-difluoro-phenoxyl-3-phenyl-propionic acid], for which the change in vivo at 100 mg/kg is -16.1% in experiment [1] (setting [4]) and -91% in experiment [1] (setting [5]). For the same compound, in experiment [2], the “% Change from Control” value is given as -86.47%. The negative-log IC50 (pIC50) in experiment [3] is 6.40.

For the compound `Brc1cc(-c2c3ccccc3c(Br)c3sc4ccccc4c23)cc(Br)c1O[C@H](Cc1ccccc1)c1nnn[nH]1` [Example 172, (R)-5-{1-[2,6-Dibromo-4-(6-bromo-benzo[b]naphtho[2,3-d]thiophen-11-yl)-phenoxy]-2-phenyl-ethyl}-1 H-tetrazole], the figures for the change in vivo at 100 mg/kg in experiment [1] (setting [4]) and in experiment [1] (setting [5]) were 5.62% and -52%, respectively. Moreover, the “% Change from Control” value in experiment [2] is -70.95%. Moreover, in experiment [3], the negative logarithm of the IC50 (pIC50) was 7.12.

Turning to `O=C(O)[C@@H](CCc1ccccc1)Oc1c(Br)cc(-c2c3ccccc3c(Br)c3sc4ccccc4c23)cc1Br` [Example 113], the change in vivo at 25 mg/kg is -0.5% in experiment [1] (setting [4]) and -55.8% in experiment [1] (setting [5]). Besides, the “% Change from Control” value in experiment [2] is recorded as -101.01%. Also, in experiment [3], the pIC50 was 7.35.

Consider `O=C(O)[C@@H](Cc1ccccc1)Oc1c(Br)cc(-c2c3c(c(Br)c4ccccc24)S(=O)(=O)c2ccccc2-3)cc1Br` [Example 189], for which the change in vivo at 100 mg/kg is -46.8% in experiment [1] (setting [4]) and 11% in experiment [1] (setting [5]). In experiment [2], the “% Change from Control” value was -89.32%. The pIC50 in experiment [3] was 5.86.

In the case of `CC(C)c1cc(-c2c3ccccc3c(Br)c3sc4ccccc4c23)cc(C(C)C)c1OCC(=O)O` [Example 89, [4-(6-Bromo-benzo[b]naphtho[2,3-d]thiophen-11-yl)-2,6-diisopropyl-phenoxy)-acetic acid], in experiment [1] (setting [4]), the change in vivo at 10 mg/kg was -24.9%. Also, the “% Change from Control” value in experiment [2] is given as -61.04%. Besides, the pIC50 in experiment [3] is 6.90.

As to `O=C(O)C(Cc1c[nH]c2ccccc12)Oc1c(Br)cc(-c2c3ccccc3c(Br)c3sc4ccccc4c23)cc1Br` (racemic) [Example 122, (R,S)-2-[2.6-Dibromo-4-(6-bromo-benzo[b]naphtho[2,3-d]thiophen-11-yl)-phenoxy]-3-(1 H-indol-3-yl)-propionic acid], the change in vivo at 100 mg/kg in experiment [1] (setting [4]) is -28.1%; in experiment [1] (setting [5]), -37.4%. Moreover, the “% Change from Control” value in experiment [2] is -85.46%. Besides, the negative-log IC50 (pIC50) in experiment [3] was 7.44.

For the compound `Cc1cc(-c2c3ccccc3c(C)c3sc4ccccc4c23)cc(C)c1O[C@H](Cc1ccccc1)C(=O)O` [Example 138, (R)-2-[2,6-Dimethyl-4-(6-methyl-benzo[b]naphtho[2,3-d]thiophen-11-yl)-phenoxy]-3-phenyl-propionic acid], the values for the change in vivo at 25 mg/kg in experiment [1] (setting [4]) and in experiment [1] (setting [5]) were -13.8% and -91.9%, respectively. In addition, the “% Change from Control” value in experiment [2] is recorded as -69.13%. For the same compound, the pIC50 in experiment [3] is 6.20.

On to `O=C(O)[C@H](Cc1ccccc1)Oc1c(Br)cc(-c2c3ccccc3c(Br)c3sc4ccccc4c23)cc1Br` [Example 111, (S)-2-[2,6-Dibromo-4-(6-bromo-benzo[b]naphtho[2,3-d]thiophen-11-yl)-phenoxy]-3-phenyl-propionic acid], for which the change in vivo at 100 mg/kg is -39.4% in experiment [1] (setting [4]) and -17.9% in experiment [1] (setting [5]). Moreover, the “% Change from Control” value in experiment [2] was -76.45%. Besides, in experiment [3], the negative-log IC50 (pIC50) was 7.21.

Turning to `O=C(O)[C@@H](Cc1ccccc1)Oc1c(Br)cc(-c2c3ccccc3c(Sc3ccccc3)c3sc4ccccc4c23)cc1Br` [Example 128, (R)-2-[2,6-Dibromo-4-(6-phenylsulfanyl-benzo[b]naphtho[2,3-d]thiophen-11-yl)-phenoxy]-3-phenyl-propionic acid], the change in vivo at 25 mg/kg in experiment [1] (setting [4]) is 3.1%; in experiment [1] (setting [5]), -38.8%. Also, in experiment [2], the “% Change from Control” value is given as -50.94%. Moreover, in experiment [3], the pIC50 is 7.60.

With `COc1c2ccccc2c(-c2cc(Br)c(O[C@H](Cc3ccccc3)C(=O)O)c(Br)c2)c2c1sc1ccccc12` [Example 126, (R)-2-[2,6-Dibromo-4-(6-methoxy-benzo[b]naphtho[2,3-d]thiophen-11-yl)-phenoxy]-3-phenyl-propionic acid], the values for the change in vivo at 25 mg/kg in experiment [1] (setting [4]) and in experiment [1] (setting [5]) were -28.6% and -62.4%, respectively. In addition, the “% Change from Control” value in experiment [2] is on record as -78.77%. The pIC50 in experiment [3] is 6.53.

Take `O=C(O)[C@@H](Cc1ccccc1)Oc1c(Br)cc(-c2c3ccccc3c(Br)c3sc4ccccc4c23)cc1Br` [Example 108, (R)-2-[2,6-Dibromo-4-(6-bromo-benzo[b]naphtho[2,3-d]thiophen-11-yl)-phenoxy]-3-phenyl-propionic acid]: in experiment [1] (setting [4]), the change in vivo at 10 mg/kg was -26.1%, the change in vivo at 50 mg/kg was -34.8%, the change in vivo at 75 mg/kg was -49.7% and the change in vivo at 100 mg/kg is -45.8%. In experiment [1] (setting [5]), the change in vivo at 10 mg/kg was -30.3%, the change in vivo at 50 mg/kg was -84.8%, the change in vivo at 75 mg/kg was -89.6% and the change in vivo at 100 mg/kg is -72.6%. In addition, in experiment [1], the “% Change Insulin from Vehicle” value is -71.03%. In addition, in experiment [1] (plasma glucose Day 4, 7 or 14), the “% Change Glucose from Vehicle” value is given as -25.66%. Moreover, the “% Change from Control” value in experiment [2] (50 µM) is listed as -72.94%. For the same compound, in experiment [3], the negative logarithm of the IC50 (pIC50) was 7.21.

Regarding `O=C(O)[C@@H](Cc1ccccc1)Oc1c(Br)cc(-c2c3ccccc3c(Br)c3sc4ccccc4c23)cc1Br` [Example 109, (R)-2-[2,6-Dibromo-4-(6-bromo-benzo[b]naphtho[2,3-d]thiophen-11-yl)-phenoxy]-3-phenyl-propionic acid, sodium salt], the “% Change Glucose from Vehicle” value in experiment [1] (plasma glucose Day 4, 7 or 14, sodium salt) was -26.31%. Besides, the “% Change Insulin from Vehicle” value in experiment [1] (sodium salt) is listed as -71.64%. The “% Change from Control” value in experiment [2] (sodium salt, 50 µM) was -66.67%. Besides, in experiment [3], the negative-log IC50 (pIC50) was 7.15.

Consider `Oc1cc(-c2c3ccccc3c(Br)c3sc4ccccc4c23)cc(Br)c1O` [Example 70, 3-Bromo-5-(6-bromo-benzo[b]naphtho[2,3-d]thiophen-11-yl)-benzene-1,2-diol], for which the change in vivo at 25 mg/kg is -28.6% in experiment [1] (setting [4]) and 45.7% in experiment [1] (setting [5]). Besides, the “% Change from Control” value in experiment [2] is -29.03%. For the same compound, the negative-log IC50 (pIC50) in experiment [3] was 7.13.
